Experimental findings from patent publication US20090062401A1, “DECALINE-DERIVED COMPOUNDS AS […] ACTIVE AGENTS” (UNIVERSITAT DORTMUND, priority 2004, published 2009) are described below.

What is called pIC50 is the negative decadic logarithm of the IC50, by convention in mol/L.

pIC50: −log10 of the molar value.

One experiment deals with VHR (Homo sapiens, UniProt P51452). Nature of the experiment: VHR phosphatase inhibition, general phosphatase assay using para-nitrophenylphosphate. The class given is biochemical. The note with it: read-out: IC50 Target VHR. The source says:
(§1) Assays protocols for the other enzymes mentioned herein (MtPTPA, PP1, VHR, PTP1B) are disclosed in Schweizer R A S, Atanasov, G A, Frey B M, and Odermatt A, Mol. Cell. Endocrinol. 2003, 212, 41-49 and Barratte, B., Meijer L., Galaktionov K. & Beach D, Anticancer Res. 1992, 12, 873-880. For determination of the phosphatase activity, a general phosphatase assay using para-nitrophenylphosphate was applied.

In the next experiment the target is 11beta-HSD1 (Homo sapiens, UniProt P28845). Nature of the experiment: biochemical. Conditions: read-out: IC50 Target 11beta-HSD1. An excerpt:
Assay protocols for Cdc25A, 11βHSD1, 11βHSD2, and AChE are described in detain in the publication of Koch M A, Wittenberg L O, Basu S, Jeyaraj D A, Gourzoulidou E, Reinecke K, Odermatt A, Waldmann H (Proc. Natl. Acad. Sci. U.S.A. 2004 Nov. 30; 101(48):16721-6) and in Koch M A et al., Proc. Natl. Acad. Sci. U.S.A. 2005 Nov. 29; 102 (48):17272-7.

The target of another experiment is MPTPA (Mycobacterium tuberculosis, UniProt P9WIA1). Nature of the experiment: MtPTPA phosphatase inhibition, general phosphatase assay using para-nitrophenylphosphate. The class given is biochemical. Conditions: read-out: IC50 Target MPTPA.
Source text: as §1

The target in another experiment is T1, PTP1B (Homo sapiens, UniProt P18031).
T1 sequence (P18031 1-435): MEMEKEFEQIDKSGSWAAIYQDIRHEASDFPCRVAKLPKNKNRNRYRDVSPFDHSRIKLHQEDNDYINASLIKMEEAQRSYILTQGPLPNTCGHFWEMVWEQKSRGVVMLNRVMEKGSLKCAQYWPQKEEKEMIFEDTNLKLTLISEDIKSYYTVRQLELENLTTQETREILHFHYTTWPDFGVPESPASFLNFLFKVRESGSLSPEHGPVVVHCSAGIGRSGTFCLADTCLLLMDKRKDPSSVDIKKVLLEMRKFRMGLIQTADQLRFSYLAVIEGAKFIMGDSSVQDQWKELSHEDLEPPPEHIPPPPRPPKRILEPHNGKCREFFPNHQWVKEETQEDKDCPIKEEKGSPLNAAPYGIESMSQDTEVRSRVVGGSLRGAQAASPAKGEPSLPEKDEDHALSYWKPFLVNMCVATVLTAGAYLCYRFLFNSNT
Nature of the experiment: PTP1B phosphatase inhibition, general phosphatase assay using para-nitrophenylphosphate. Type of experiment: biochemical. The note with it: read-out: IC50 Target PTP1B.
Source text: as §1

Chain of MPTPA (P9WIA1 whole entry): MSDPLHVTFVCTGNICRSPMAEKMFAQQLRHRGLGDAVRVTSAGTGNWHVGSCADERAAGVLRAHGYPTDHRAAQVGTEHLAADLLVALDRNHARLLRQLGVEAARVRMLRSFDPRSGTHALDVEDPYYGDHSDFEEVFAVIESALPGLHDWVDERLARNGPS
Chain of VHR (P51452 whole entry, species assumed): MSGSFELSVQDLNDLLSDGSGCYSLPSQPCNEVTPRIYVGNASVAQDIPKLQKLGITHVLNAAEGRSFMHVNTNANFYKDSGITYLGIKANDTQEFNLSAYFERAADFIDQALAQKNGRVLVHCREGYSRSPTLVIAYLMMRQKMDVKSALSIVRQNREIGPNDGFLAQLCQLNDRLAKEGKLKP
Chain of 11beta-HSD1 (P28845 whole entry): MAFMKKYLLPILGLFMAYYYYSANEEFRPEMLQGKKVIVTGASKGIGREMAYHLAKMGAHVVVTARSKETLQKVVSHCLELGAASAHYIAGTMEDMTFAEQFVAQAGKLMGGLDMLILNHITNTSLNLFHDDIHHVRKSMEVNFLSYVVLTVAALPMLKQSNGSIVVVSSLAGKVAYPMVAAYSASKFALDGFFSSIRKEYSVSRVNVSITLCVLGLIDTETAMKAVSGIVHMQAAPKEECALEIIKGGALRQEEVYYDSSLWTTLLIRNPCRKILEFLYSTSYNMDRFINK

As to `CC1=C2CCC[C@H](O)[C@@]2(C)C/C(=C\c2ccc(F)c(F)c2)C1=O` [Compound 1, (3E,4aS,5S)-3-(3,4-Difluorbenzyliden)-4,4a,5,6,7,8-hexahydro-5-hydroxy-1,4a-dimethyl-naphthalen-2(3H)-one], the pIC50 on VHR is 4.30 to 5.00; on 11beta-HSD1, greater than 5.00.

For the molecule `CC1=C2CCC[C@H](O)[C@@]2(C)C/C(=C\c2ccc(Br)cc2)C1=O` [Compound 65, (3E,4aS,5S)-3-(4-Brombenzyliden)-4,4a,5,6,7,8-hexahydro-5-hydroxy-1,4a-dimethylnaphthalen-2(3H)-one], the negative logarithm of the IC50 (pIC50) on 11beta-HSD1 was 4.30 to 5.00.

`CC1=C2CCC[C@H](O)[C@@]2(C)C/C(=C\c2ccc(C#CC3CCCCC3)cc2)C1=O` [Compound 73, (3E,4aS,5S)-3-[4-(2-Cyclohexyl-ethinyl)benzyliden]-4,4a,5,6,7,8-hexahydro-5-hydroxy-1,4a-dimethylnaphthalen-2(3H)-one]: the pIC50 on 11beta-HSD1 is greater than 5.00.

Consider `C=C1C(C)=C2CCC[C@H](O)[C@@]2(C)C/C1=C\c1ccccc1` [Compound 97, (1S,7E,8aS)-7-Benzyliden-1,2,3,4,6,7,8,8a-octahydro-5,8a-dimethyl-6-methylennaphthalen-1-ol], for which the pIC50 at 11beta-HSD1 is greater than 5.00.

`C=C1C(C)=C2CCC[C@H](O)[C@@]2(C)C/C1=C\CCCC` [Compound 98, (1S,7E,8aS)-1,2,3,4,6,7,8,8a-Octahydro-5,8a-dimethyl-6-methylen-7-pentylidennaphthalen-1-ol]: the pIC50 at 11beta-HSD1 is greater than 5.00.

In the case of `CCCCCCC#Cc1ccc(/C=C2\C[C@@]3(C)C(CCC[C@@H]3O)C(C)C2=O)cc1` (stereo partly drawn) [Compound 125, (E,4aS,5S)-3-[4-(Oct-1-inyl)-benzyliden]-octahydro-5-hydroxy-1,4a-dimethylnaphthalen-2(1H)-one], the negative logarithm of the IC50 (pIC50) at VHR and on MPTPA was 4.30 to 5.00 each time.

For the molecule `CCCCCCCCCCCCCCC#Cc1ccc(/C=C2\C[C@@]3(C)C(CCC[C@@H]3O)C(C)C2=O)cc1` (stereo partly drawn) [Compound 127, (E,4aS,5S)-3-[4-(Hexadec-1-inyl)benzyliden]-octahydro-5-hydroxy-1,4a-dimethylnaphthalen-2(1H)-one], the pIC50 at VHR and at MPTPA was 4.30 to 5.00 in each case.

On to `CCCCCCCCCCCCCCC#Cc1ccc(/C=C2\C[C@@]3(Cc4ccccc4)C(=C(C)C2=O)CCC[C@@H]3O)cc1` [Compound 128, (3E,4aS,5S)-3-[4-(Hexadec-1-inyl)benzyliden]-4a-benzyl-4,4a,5,6,7,8-hexahydro-5-hydroxy-1-methylnaphthalen-2(3H)-one], for which the pIC50 on VHR and at MPTPA was 4.30 to 5.00 throughout.

In the case of `CCCC#Cc1ccc(/C=C2\C[C@@]3(Cc4ccccc4)C(=C(C)C2=O)CCC[C@@H]3O)cc1` [Compound 130, (3E,4aS,5S)-3-[4-(Pent-1-inyl)benzyliden]-4a-benzyl-4,4a,5,6,7,8-hexahydro-5-hydroxy-1-methylnaphthalen-2(3H)-one], the negative-log IC50 (pIC50) on VHR and at MPTPA was 4.30 to 5.00 in each case.

As to `CCN(CC)C1CC[C@@]2(C)C(=C1C)CCC[C@@H]2O` (stereo partly drawn) [Compound 388, (1S,8aS)-6-(Diethylamino)-1,2,3,4,6,7,8,8a-octahydro-5,8a-dimethylnaphthalen-1-ol], the negative-log IC50 (pIC50) on MPTPA was 4.30 to 5.00.

On to `CC1=C2CCC[C@H](O)[C@@]2(C)CC(=Cc2ccc(NC3CCCCC3)cc2)C1=O` [Compound 399, (4aS,5S)-3-(4-Cyclohexylamino-benzylidene)-5-hydroxy-1,4a-dimethyl-4,4a,5,6,7,8-hexahydro-3H-naphthalen-2-one], for which the negative-log IC50 (pIC50) at 11beta-HSD1 is greater than 5.00.

For `CC1C=CCC2CCCC(=O)C12` (stereo not shown) [Compound 407, 8-Methyl-3,4,4a,5,8,8a-hexahydro-2H-naphthalen-1-one], on 11beta-HSD1, the negative-log IC50 (pIC50) is greater than 5.00.

Turning to `CC1(Cc2cc(Br)cc(Br)c2)C(=O)/C(=C/c2ccc(I)cc2)CC2(C)C1CCCC21OCCO1` (stereo not shown) [Compound 416, (7′E)-5′-(3,5-Dibromobenzyl)-7′-(4-iodo-benzylidene)-5′,8a′-dimethylhexahydro-2′H-spiro[1,3-dioxolane-2,1′-naphthalen]-6′(5′H)-one], the negative logarithm of the IC50 (pIC50) on PTP1B was 4.30 to 5.00; at 11beta-HSD1, greater than 5.00.
